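Protocol summary: plate cells (96-well), add compound at 5 concentrations, incubate 48 h, interpolate endpoints linearly. At the GI50, growth is halved.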 Activity calls are given as the source filed them. Rule as the data show it: active = GI50 up to about 1.1 µM and inactive = higher.
How the values were obtained:
Test in all cases: inhibition of tumour cell growth, NCI panel, 48 h
KM-20L2 = system: KM-20L2
DMS-114 = system: DMS-114
SK-OV-3 = system: SK-OV-3
NCI-H226 = system: NCI-H226
HOP-18 = system: HOP-18
HCT-116 = system: HCT-116
COLO 205 = system: COLO 205
KM12 = system: KM12
TK-10 = system: TK-10
U-251 = system: U-251
RPMI-8226 = system: RPMI-8226
NCI-H460 = system: NCI-H460
IGROV-1 = system: IGROV-1
M19-MEL = system: M19-MEL
UACC-62 = system: UACC-62
DMS-273 = system: DMS-273
SNB-78 = system: SNB-78

Measured: GI50

COC(=O)C(=O)C1(CCC(C)=O)c2ccccc2-c2ccccc21
inactive: KM-20L2 > 100 µM | DMS-114 65.5 µM | SK-OV-3 > 100 µM | NCI-H226 > 100 µM | HOP-18 71.6 µM | HCT-116 43.6 µM | COLO 205 76.9 µM | KM12 74.3 µM | TK-10 71.3 µM | U-251 68.5 µM | RPMI-8226 36.4 µM | NCI-H460 59.8 µM | IGROV-1 > 100 µM | M19-MEL > 100 µM | UACC-62 97.7 µM | DMS-273 43.6 µM

COc1cc(/C=N/c2nncs2)ccc1O
inactive: KM-20L2 > 100 µM | SNB-78 > 100 µM | DMS-114 > 100 µM | SK-OV-3 > 100 µM | NCI-H226 > 100 µM | HOP-18 > 100 µM | HCT-116 > 100 µM | KM12 > 100 µM | TK-10 > 100 µM | U-251 > 100 µM | RPMI-8226 > 100 µM | NCI-H460 > 100 µM | IGROV-1 > 100 µM | M19-MEL > 100 µM | UACC-62 > 100 µM | DMS-273 > 100 µM

CC1CN1c1c(C(=O)/C=C/c2ccccc2)c(-c2ccccc2)nn(C)c1=O (configuration not stated)
inactive: KM-20L2 19.1 µM | SNB-78 18.2 µM | DMS-114 23 µM | SK-OV-3 31.6 µM | NCI-H226 20.8 µM | HOP-18 26.2 µM | HCT-116 17.5 µM | COLO 205 16.2 µM | KM12 20.8 µM | TK-10 25.8 µM | U-251 16.9 µM | NCI-H460 19.1 µM | IGROV-1 23.7 µM | M19-MEL 17.3 µM | UACC-62 16.2 µM | DMS-273 16.7 µM

COc1ccc2c3ccc4c(c3n(C)c2c1)C(=O)c1ccccc1C4=O
inactive: KM-20L2 39.8 µM | SNB-78 > 100 µM | DMS-114 > 100 µM | SK-OV-3 21.6 µM | NCI-H226 > 100 µM | HOP-18 > 100 µM | HCT-116 30.1 µM | COLO 205 75.2 µM | U-251 63.8 µM | RPMI-8226 > 100 µM | IGROV-1 > 100 µM | M19-MEL > 100 µM | UACC-62 > 100 µM | DMS-273 > 100 µM

Cc1cc(O)c2c(c1)C(O)(c1ccc3c(c1O)C(=O)c1c(O)cc(C)cc1C3(O)C1OC(CO)C(O)C(O)C1O)c1cccc(O)c1C2=O (configuration not stated)
inactive: KM-20L2 18.6 µM | SNB-78 16.1 µM | DMS-114 9.91 µM | SK-OV-3 17.6 µM | HOP-18 5.06 µM | HCT-116 11.9 µM | KM12 11.5 µM | TK-10 14.1 µM | U-251 11.6 µM | RPMI-8226 16 µM | NCI-H460 14 µM | IGROV-1 14.7 µM | M19-MEL 12.2 µM | UACC-62 12.1 µM | DMS-273 15.1 µM

CCCNCc1nc2ccc(Br)cc2c(=O)n1CCC
inactive: KM-20L2 19.2 µM | SNB-78 17.5 µM | DMS-114 10.8 µM | SK-OV-3 18.7 µM | NCI-H226 12.5 µM | HOP-18 18.1 µM | HCT-116 9.98 µM | COLO 205 14.6 µM | KM12 15.1 µM | U-251 13.3 µM | RPMI-8226 3.67 µM | IGROV-1 15.6 µM | M19-MEL 13.2 µM | UACC-62 6.93 µM | DMS-273 12.4 µM

COc1cc(/C=C(\C#N)C(=O)c2ccccc2)cc(OC)c1OC
inactive: KM-20L2 > 100 µM | SNB-78 > 100 µM | DMS-114 > 100 µM | SK-OV-3 > 100 µM | NCI-H226 > 100 µM | HOP-18 > 100 µM | HCT-116 > 100 µM | COLO 205 > 100 µM | KM12 > 100 µM | TK-10 > 100 µM | U-251 > 100 µM | RPMI-8226 > 100 µM | NCI-H460 > 100 µM | M19-MEL > 100 µM | UACC-62 > 100 µM | DMS-273 > 100 µM

CCC(=O)N1C(=O)OCC1C(C)C (configuration not stated)
inactive: KM-20L2 > 100 µM | SNB-78 > 100 µM | DMS-114 > 100 µM | SK-OV-3 > 100 µM | HOP-18 15.8 µM | HCT-116 > 100 µM | COLO 205 > 100 µM | KM12 > 100 µM | TK-10 > 100 µM | U-251 > 100 µM | RPMI-8226 > 100 µM | NCI-H460 > 100 µM | IGROV-1 > 100 µM | M19-MEL > 100 µM | UACC-62 > 100 µM | DMS-273 > 100 µM

Clc1ccc(/C=C/c2csnn2)cc1
inactive: KM-20L2 > 100 µM | SNB-78 > 100 µM | DMS-114 > 100 µM | SK-OV-3 > 100 µM | NCI-H226 > 100 µM | HOP-18 > 100 µM | HCT-116 > 100 µM | COLO 205 > 100 µM | KM12 > 100 µM | TK-10 > 100 µM | U-251 > 100 µM | NCI-H460 > 100 µM | IGROV-1 > 100 µM | M19-MEL > 100 µM | UACC-62 > 100 µM | DMS-273 > 100 µM

CCCCCCCCCCCCCC(=O)CSCCNC(=O)CCNC(=O)[C@@H](O)C(C)(C)COP(=O)(O)OP(=O)(O)OCC1OC(n2cnc3c(N)ncnc32)C(O)C1OP(=O)(O)O (some centres not stated)
inactive: KM-20L2 19.4 µM | SNB-78 15.5 µM | DMS-114 15.6 µM | SK-OV-3 14.6 µM | NCI-H226 18.2 µM | HOP-18 17.5 µM | HCT-116 15.8 µM | COLO 205 13.1 µM | KM12 14.6 µM | TK-10 68.2 µM | U-251 18 µM | NCI-H460 25.6 µM | IGROV-1 13.6 µM | M19-MEL 18.9 µM | UACC-62 15 µM | DMS-273 11.2 µM

COC1=CC(C)C2C[C@H]3O[C@H](O)C[C@H]4C(C)C(=O)C(O)C([C@@]2(C)C1=O)[C@@]34C (some centres not stated)
inactive: SNB-78 > 100 µM | DMS-114 > 100 µM | SK-OV-3 > 100 µM | NCI-H226 > 100 µM | HOP-18 > 100 µM | HCT-116 > 100 µM | COLO 205 > 100 µM | KM12 > 100 µM | TK-10 > 100 µM | U-251 > 10 µM | RPMI-8226 > 100 µM | NCI-H460 > 100 µM | IGROV-1 > 100 µM | M19-MEL > 100 µM | UACC-62 > 100 µM | DMS-273 > 100 µM

CC(C)c1ccc(C(c2ccc(OCC(=O)O)cc2)c2ccc(C(C)C)cc(=O)c2O)c(O)c(=O)c1
inactive: KM-20L2 3.54 µM | SNB-78 6.79 µM | DMS-114 2.92 µM | SK-OV-3 6.81 µM | HOP-18 9.89 µM | HCT-116 3.76 µM | COLO 205 3.14 µM | TK-10 5.3 µM | U-251 5.3 µM | RPMI-8226 4.38 µM | NCI-H460 2.83 µM | IGROV-1 4.33 µM | M19-MEL 4.94 µM | UACC-62 3.55 µM | DMS-273 3.45 µM

From ChEMBL document CHEMBL1201862, “PubChem BioAssay data set” (2004)
